Among the data in patent publication US8318759B2, “Pyrrolidine derivatives as NK3 receptor antagonists” (Hoffmann-La Roche Inc., priority 2009, dated 2012) are Ki values, retold here.

By Ki is commonly meant the equilibrium dissociation constant of an inhibitor or competing ligand from its target.

For this test, the target named is T1, human NK3 receptor (Homo sapiens, UniProt P29371).
T1 construct: expressed in transfected cells; host or cells: HEK293 cells (transient expression), membranes
T1 sequence (P29371 1-465): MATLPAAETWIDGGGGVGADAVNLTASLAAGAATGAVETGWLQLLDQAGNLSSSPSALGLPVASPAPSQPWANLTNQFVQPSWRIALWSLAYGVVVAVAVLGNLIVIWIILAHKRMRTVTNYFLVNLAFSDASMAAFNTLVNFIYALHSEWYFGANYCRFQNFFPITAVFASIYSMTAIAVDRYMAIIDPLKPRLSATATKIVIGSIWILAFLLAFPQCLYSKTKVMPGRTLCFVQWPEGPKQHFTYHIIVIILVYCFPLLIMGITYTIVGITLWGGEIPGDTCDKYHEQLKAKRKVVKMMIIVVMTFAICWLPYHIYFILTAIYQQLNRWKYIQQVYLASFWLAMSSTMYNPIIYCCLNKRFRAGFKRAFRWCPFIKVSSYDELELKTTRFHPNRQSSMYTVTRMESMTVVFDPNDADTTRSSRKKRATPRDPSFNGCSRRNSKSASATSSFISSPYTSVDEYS
Put plainly: [3H]SR142801 competition binding assay. As to conditions: membrane from HEK293 cells transiently expressing recombinant human NK3 receptor; radioligand [3H]SR142801; Ki from IC50 by Cheng-Prussoff equation. The procedure:
[^3H]SR142801 Competition Binding Assay
hNK3 receptor binding experiment were performed using [^3H]SR142801 (Catalog No. TRK1035, specific activity: 74.0 Ci/mmol, Amersham, GE Healthcare UK limited, Buckinghamshire, UK) and membrane isolated from HEK293 cells transiently expressing recombinant human NK3 receptor. After thawing, the membrane homogenates were centrifuged at 48,000×g for 10 min at 4° C., the pellets were resuspended in the 50 mM Tris-HCl, 4 mM MnCl2, 1 μM phosphoramidon, 0.1% BSA binding buffer at pH 7.4 to a final assay concentration of 5 μg protein/well. […] At the end of the incubation, membranes were filtered onto unitfilter (96-well white microplate with bonded GF/C filter preincubated 1 h in 0.3% PEI+0.3% BSA, Packard BioScience, Meriden, Conn.) with a Filtermate 196 harvester (Packard BioScience) and washed 4 times with ice-cold 50 mM Tris-HCl, pH 7.4 buffer. Nonspecific binding was measured in the presence of 10 μM SB222200 for both radioligands. The radioactivity on the filter was counted (5 min) on a Packard Top-count microplate scintillation counter with quenching correction after addition of 45 μl of microscint 40 (Canberra Packard S. A., Zürich, Switzerland) and shaking for 1 h. Inhibition curves were fitted according to the Hill equation: y=100/(1+(x/IC50)^nH), where nH=slope factor using Excel-fit 4 software (Microsoft). IC50 values were derived from the inhibition curve and the affinity constant (Ki) values were calculated using the Cheng-Prussoff equation Ki=IC50/(1+[L]/KD) where [L] is the concentration of radioligand and KD is its dissociation constant at the receptor, derived from the saturation isotherm. All experiments were performed in duplicate and the mean±standard error (SEM) of the individual Ki values was calculated.
Regarding `CS(=O)(=O)N1CCN(C(=O)N2C[C@H](CSc3ccc(C(F)(F)F)cc3)[C@@H](c3ccc(Cl)c(Cl)c3)C2)CC1` (racemic) [Example 1, (3SR,4RS)-[3-(3,4-Dichloro-phenyl)-4-(4-trifluoromethyl-phenylsulfanylmethyl)-pyrrolidin-1-yl]-(4-methanesulfonyl-piperazin-1-yl)-methanone], the Ki amounted to 49.6 nM.
Next, `CS(=O)(=O)N1CCN(C(=O)N2C[C@H](CSc3ccc(Cl)cc3)[C@@H](c3ccc(Cl)c(Cl)c3)C2)CC1` (racemic) [Example 2]: 45.9 nM.
Next, `CS(=O)(=O)N1CCN(C(=O)N2C[C@H](CSc3ccc(C#N)cc3)[C@@H](c3ccc(Cl)c(Cl)c3)C2)CC1` (racemic) [Example 4, (3SR,4RS)-4-[4-(3,4-Dichloro-phenyl)-1-(4-methanesulfonyl-piperazine-1-carbonyl)-pyrrolidin-3-ylmethylsulfanyl]-benzonitrile]: 61.7 nM.
Next, `CS(=O)(=O)N1CCN(C(=O)N2C[C@H](CSc3ccc(C(F)(F)F)cn3)[C@@H](c3ccc(Cl)c(Cl)c3)C2)CC1` (racemic) [Example 5, (3SR,4RS)-[3-(3,4-Dichloro-phenyl)-4-(5-trifluoromethyl-pyridin-2-ylsulfanylmethyl)-pyrrolidin-1-yl]-(4-methanesulfonyl-piperazin-1-yl)-methanone]: 2.4 nM; `CS(=O)(=O)N1CCN(C(=O)N2C[C@H](CSc3ccc(Cl)cn3)[C@@H](c3ccc(Cl)c(Cl)c3)C2)CC1` (racemic) [Example 6, (3SR,4RS)-[3-(5-Chloro-pyridin-2-ylsulfanylmethyl)-4-(3,4-dichloro-phenyl)-pyrrolidin-1-yl]-(4-methanesulfonyl-piperazin-1-yl)-methanone]: 2.2 nM; `CS(=O)(=O)N1CCN(C(=O)N2CC(CNc3ccc(C(F)(F)F)cn3)C(c3ccc(Cl)c(Cl)c3)C2)CC1` (racemic) [Example 12, (3SR,4RS)-{3-(3,4-Dichloro-phenyl)-4-[(5-trifluoromethyl-pyridin-2-ylamino)-methyl]-pyrrolidin-1-yl}-(4-methanesulfonyl-piperazin-1-yl)-methanone]: 20 nM.
Turning to `CN(C[C@H]1CN(C(=O)N2CCN(S(C)(=O)=O)CC2)C[C@@H]1c1ccc(Cl)c(Cl)c1)c1ccc(C(F)(F)F)cn1` (racemic) [Example 15], the Ki was 78.8 nM.
With `N#Cc1ccc(C(=O)N2CC(CNc3ccc(C(F)(F)F)cn3)C(c3ccc(Cl)c(Cl)c3)C2)cn1` (racemic) [Example 17, (3SR,4RS)-5-{3-(3,4-Dichloro-phenyl)-4-[(5-trifluoromethyl-pyridin-2-ylamino)-methyl]-pyrrolidine-1-carbonyl}-pyridine-2-carbonitrile], the Ki worked out at 9.6 nM.
Take `CC(=O)N1CCC(C(=O)N2C[C@H](CNc3ccc(C(F)(F)F)cn3)[C@@H](c3ccc(Cl)c(Cl)c3)C2)CC1` (racemic) [Example 19]: the Ki was determined as 10.3 nM.
For `Cc1cc(C(=O)N2C[C@H](CNc3ccc(C(F)(F)F)cn3)[C@@H](c3ccc(Cl)c(Cl)c3)C2)cnn1` (racemic) [Example 20], the Ki was determined as 11 nM.
Turning to `CC1(C(=O)N2CCC(C(=O)N3C[C@H](CNc4ccc(C(F)(F)F)cn4)[C@@H](c4ccc(Cl)c(Cl)c4)C3)CC2)CC1` (racemic) [Example 21], the Ki was 8.9 nM.
Next, `O=C(c1ccnnc1)N1C[C@H](CNc2ccc(C(F)(F)F)cn2)[C@@H](c2ccc(Cl)c(Cl)c2)C1` (racemic) [Example 22]: 98.6 nM.
Next, `Cc1cc(C(=O)N2C[C@H](CNc3ccc(C(F)(F)F)cn3)[C@@H](c3ccc(Cl)c(Cl)c3)C2)c(C)nn1` (racemic) [Example 23]: 10.9 nM.
Then `CC1(C(=O)N2CCC(C(=O)N3C[C@H](CNc4ncc(Cl)cn4)[C@@H](c4ccc(Cl)c(Cl)c4)C3)CC2)CC1` (racemic) [Example 24], with 16.5 nM; and `CC(=O)N1CCC(C(=O)N2C[C@H](CNc3ncc(Cl)cn3)[C@@H](c3ccc(Cl)c(Cl)c3)C2)CC1` (racemic) [Example 25], with 19.5 nM.
Consider `N#Cc1ccc(C(=O)N2C[C@H](CNc3ncc(Cl)cn3)[C@@H](c3ccc(Cl)c(Cl)c3)C2)cn1` (racemic) [Example 26], for which the Ki is 46.3 nM.
Next, `Cc1cc(C(=O)N2C[C@H](CNc3ncc(Cl)cn3)[C@@H](c3ccc(Cl)c(Cl)c3)C2)cnn1` (racemic) [Example 27]: 24.7 nM; `CS(=O)(=O)N1CCN(C(=O)N2C[C@H](CNc3ccc(C(F)(F)F)cc3)[C@@H](c3ccc(Cl)c(Cl)c3)C2)CC1` (racemic) [Example 28]: 58.5 nM; `CS(=O)(=O)N1CCN(C(=O)N2C[C@H](CNc3ccc(Cl)cn3)[C@@H](c3ccc(Cl)c(Cl)c3)C2)CC1` (racemic) [Example 30]: 36.1 nM.
Then `CS(=O)(=O)N1CCN(C(=O)N2CC(CNc3ncc(C#N)cn3)C(c3ccc(Cl)c(Cl)c3)C2)CC1` (racemic) [Example 31, (3SR,4RS)-2-{[4-(3,4-Dichloro-phenyl)-1-(4-methanesulfonyl-piperazine-1-carbonyl)-pyrrolidin-3-ylmethyl]-amino}-pyrimidine-5-carbonitrile], with 80 nM; and `CC(=O)N1CCC(C(=O)N2C[C@H](CNc3ncc(C(F)(F)F)cn3)[C@@H](c3ccc(Cl)c(Cl)c3)C2)CC1` (racemic) [Example 33], with 7.5 nM.
Then `CC1(C(=O)N2CCC(C(=O)N3C[C@H](CNc4ncc(C(F)(F)F)cn4)[C@@H](c4ccc(Cl)c(Cl)c4)C3)CC2)CC1` (racemic) [Example 34], with 6.2 nM.
`Cc1cc(C(=O)N2C[C@H](CNc3ncc(C(F)(F)F)cn3)[C@@H](c3ccc(Cl)c(Cl)c3)C2)cnn1` (racemic) [Example 35]: the Ki came out at 9 nM.
Regarding `CC(Nc1ccc(C#N)cn1)[C@H]1CN(C(=O)N2CCN(S(C)(=O)=O)CC2)C[C@@H]1c1ccc(Cl)c(Cl)c1` (mixture of isomers) [Example 36, (3SR,4RS) 6-{1-(RS)-[4-(3,4-Dichloro-phenyl)-1-(4-methanesulfonyl-piperazine-1-carbonyl)-pyrrolidin-3-yl]-ethylamino}-nicotinonitrile and (3SR,4RS) 6-{1-(SR)-[4-(3,4-Dichloro-phenyl)-1-(4-methanesulfonyl-piperazine-1-carbonyl)-pyrrolidin-3-yl]-ethylamino}-nicotinonitrile], the Ki was 68.2 nM.
Then `CC(Nc1ccc(C(F)(F)F)cn1)[C@H]1CN(C(=O)N2CCN(S(C)(=O)=O)CC2)C[C@@H]1c1ccc(Cl)c(Cl)c1` (mixture of isomers) [Example 37, (3SR,4RS) {3-(3,4-Dichloro-phenyl)-4-[1-(RS)-(5-trifluoromethyl-pyridin-2-ylamino)-ethyl]-pyrrolidin-1-yl}-(4-methanesulfonyl-piperazin-1-yl)-methanone and (3SR,4RS) {3-(3,4-Dichloro-phenyl)-4-[1-(SR)-(5-trifluoromethyl-pyridin-2-ylamino)-ethyl]-pyrrolidin-1-yl}-(4-methanesulfonyl-piperazin-1-yl)-methanone], with 54.9 nM.
